Tested on: SW480
Assay: drug sensitivity score (DSS, integrated dose-response area); higher = more sensitive (stronger viability reduction); extreme values may be limits of the assay
Summary of the method: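 Viability of induced SW480 cells carrying control or SND1-targeting shRNA was read by CellTiter-Glo 72 h after plating at 1000 cells per well onto 384-well plates holding 525 small-molecule inhibitors at five concentrations. Induction used 0.1 µg/mL doxycycline for 7 days. Each drug sensitivity score integrates the area under a fitted non-linear dose–response model.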

[1] = shRNA: SND1 shRNA1 (SND1 silenced)
[2] = shRNA: SND1 shRNA2 (SND1 silenced)
[3] = shRNA: control shRNA (non-targeting)

SMILES | drug sensitivity score [1] | drug sensitivity score [2] | drug sensitivity score [3]
C/C=C1\NC(=O)[C@H]2CSSCC/C=C/[C@H](CC(=O)N[C@H](C(C)C)C(=O)N2)OC(=O)[C@H](C(C)C)NC1=O [Romidepsin] | 25.7 DSS | 25.1 DSS | 27.4 DSS
CN(C)C[C@@H]1CCn2cc(c3ccccc32)C2=C(C(=O)NC2=O)c2cn(c3ccccc23)CCO1 [Ruboxistaurin] | 8.1 DSS | 7.8 DSS | 7.4 DSS
CNCc1ccc(-c2[nH]c3cc(F)cc4c3c2CCNC4=O)cc1 [Rucaparib] | 0.3 DSS | 3 DSS | 4.6 DSS
N#CC[C@H](C1CCCC1)n1cc(-c2ncnc3[nH]ccc23)cn1 [Ruxolitinib] | 2.3 DSS | 5.6 DSS | 4.4 DSS
CC(C)N(CCCNC(=O)Nc1ccc(C(C)(C)C)cc1)C[C@H]1O[C@@H](n2cc(Br)c3c(N)ncnc32)[C@H](O)[C@@H]1O [SGC0946] | 4.6 DSS | 1.3 DSS | 4.3 DSS
COc1ccc(CCc2nc3cc(-c4c(C)noc4C)ccc3n2C[C@H](C)N2CCOCC2)cc1Cl [SGC-CBP30] | 0.8 DSS | 2.1 DSS | 2.3 DSS
CN1CCC(CNc2ccc3ncc(-c4cccc(OC(F)(F)F)c4)n3n2)CC1 [SGI-1776] | 9.6 DSS | 9.5 DSS | 8.9 DSS
Cn1cc(-c2ccc3nnc(Sc4ccc5ncccc5c4)n3n2)cn1 [SGX-523] | 0 DSS |  | 0 DSS
CN(CC(=O)N(Cc1ccc(C2CCCCC2)cc1)c1ccc(C(=O)O)cc1)S(=O)(=O)c1c(F)c(F)c(F)c(F)c1F [SH-4-54] | 9.8 DSS | 8.6 DSS | 9.5 DSS
CC(C)NC(=O)COc1cccc(-c2nc(Nc3ccc4[nH]ncc4c3)c3ccccc3n2)c1 [SLx-2119] | 0 DSS | 0 DSS | 0 DSS
CCc1c2c(nc3ccc(O)cc13)-c1cc3c(c(=O)n1C2)COC(=O)[C@]3(O)CC [SN-38] | 21.2 DSS | 12.5 DSS | 18.7 DSS
CC(C)(C)c1cnc(CSc2cnc(NC(=O)C3CCNCC3)s2)o1 [SNS-032] | 18.1 DSS | 15 DSS | 16.5 DSS
O=C(Nc1cccc(Cl)c1)Nc1ncc(CCNc2ncnc3ccsc23)s1 [SNS-314] | 4.8 DSS | 4.3 DSS | 5.6 DSS
Cc1cc2c(C(=O)NC[C@H](C)c3ccccc3)c(O)c(O)cc2c(O)c1-c1c(C)cc2c(C(=O)NC[C@H](C)c3ccccc3)c(O)c(O)cc2c1O [Sabutoclax] | 14.2 DSS | 13.3 DSS | 12.7 DSS
CNC(=O)CN1CCC(Oc2cc3c(Nc4cccc(Cl)c4F)ncnc3cc2OC)CC1 [Sapitinib] | 0.1 DSS | 5 DSS | 0 DSS
CN1CCN(CCOc2cc(OC3CCOCC3)c3c(Nc4c(Cl)ccc5c4OCO5)ncnc3c2)CC1 [Saracatinib] | 1.4 DSS | 1.3 DSS | 1.5 DSS
CC[C@H](CO)Nc1nc(NCc2ccccc2)c2ncn(C(C)C)c2n1 [Seliciclib] | 2.1 DSS | 0.7 DSS | 1.2 DSS
O=C(/C=C\n1cnc(-c2cc(C(F)(F)F)cc(C(F)(F)F)c2)n1)NNc1cnccn1 [Selinexor] | 19.5 DSS | 19.3 DSS | 20.7 DSS
Cn1cnc2c(F)c(Nc3ccc(Br)cc3Cl)c(C(=O)NOCCO)cc21 [Selumetinib] | 19.1 DSS | 8.9 DSS | 4.7 DSS
Cc1cc(C)c(/C=C2\C(=O)Nc3ccccc32)[nH]1 [Semaxanib] | 0 DSS | 0 DSS | 0.6 DSS
c1ccc2c(CCNc3ccc(Nc4ccncc4)cc3)c[nH]c2c1 [Serdemetan] | 2.4 DSS | 1 DSS | 2.2 DSS
O=C(O)c1ccc2c(c1)nc(Nc1cccc(Cl)c1)c1ccncc12 [Silmitasertib] | 2.1 DSS | 2.1 DSS | 0.8 DSS
CCC(C)(C)C(=O)O[C@H]1C[C@@H](C)C=C2C=C[C@H](C)[C@H](CC[C@@H]3C[C@@H](O)CC(=O)O3)[C@H]21 [Simvastatin] | 1.2 DSS |  | 4.5 DSS
CO[C@H]1C[C@@H]2CC[C@@H](C)[C@@](O)(O2)C(=O)C(=O)N2CCCC[C@H]2C(=O)O[C@H]([C@H](C)C[C@@H]2CC[C@@H](O)[C@H](OC)C2)CC(=O)[C@H](C)/C=C(\C)[C@@H](O)[C@@H](OC)C(=O)[C@H](C)C[C@H](C)/C=C/C=C/C=C/1C [Sirolimus] | 7.8 DSS |  | 6.9 DSS

Source: the supplement of paper PMC9265050, “Inhibition of RNA Binding in SND1 Increases the Levels of miR-1-3p and Sensitizes Cancer Cells to Navitoclax” (Cancers, 2022)
